Assay results: patent US7276502B2, “Thiazoles useful as inhibitors of protein kinases” (Vertex Pharmaceuticals Incorporated, priority 2003, dated 2007)

biological target: SYK (Homo sapiens, UniProt P43405); assay: SYK inhibition assay (standard coupled enzyme assay); assay type: biochemical; settings: coupled enzyme assay, 200 μM ATP, 4 μM poly Gly-Tyr peptide, 30° C.; read-out: Ki (SYK)
Description: Reactions were carried out in 100 mM HEPES (pH 7.5), 10 mM MgCl2, 25 mM NaCl, 1 mM DTT and 1.5% DMSO. Final substrate concentrations in the assay were 200 μM ATP (Sigma chemical Co.) and 4 μM poly Gly-Tyr peptide (Sigma Chemical Co.). Assays were carried out at 30° C. and 200 nM SYK. Final concentrations of the components of the coupled enzyme system were 2.5 mM phosphoenolpyruvate, 300 μM NADH, 30 μg/ml pyruvate kinase and 10 μg/ml lactate dehydrogenase.
An assay stock buffer solution was prepared containing all of the reagents listed above, with the exception of SYK, DTT, and the test compound of interest of the present invention. 56 μl of the test reaction was placed in a 96 well plate followed by the addition of 1 μl of 2 mM DMSO stock containing the test compound of the present invnetion (final compound concentration 30 μM).

Ki, ≤ 5 µM:
Cc1cc(C)cc(Nc2nccc(-c3ncc(C(=O)NCCN)s3)n2)c1 [Example I-138]
Cc1cc(C)cc(Nc2nccc(-c3nc(C)c(C)s3)n2)c1 [Example I-70]
Cc1cc(C)cc(Nc2nccc(-c3nc(C)c(CCOC4CCCCO4)s3)n2)c1 (stereo not drawn) [Example I-119]
CCN(CC)Cc1cc(Nc2nccc(-c3ncc(C)s3)n2)ccc1O [Example I-10]
CCn1c2ccccc2c2cc(Nc3nccc(-c4ncc(C)s4)n3)ccc21 [Example I-26]
Cc1cc(C)cc(Nc2nccc(-c3ncc(C(=O)N4CCNCC4)s3)n2)c1 [Example I-134]
Cc1cnc(-c2ccnc(Nc3ccccc3)n2)s1 [Example I-49]
CCOc1ccc(Nc2nccc(-c3ncc(C)s3)n2)cc1 [Example I-14]
Cc1cnc(-c2ccnc(Nc3ccc4[nH]nc(C)c4c3)n2)s1 [Example I-136]
Cc1cnc(-c2ccnc(NC3CCCC3)n2)s1 [Example I-81]
Cc1cc(C)cc(Nc2nccc(-c3nc(Br)cs3)n2)c1 [Example I-42]
COCc1csc(-c2ccnc(Nc3cc(C)cc(C)c3)n2)n1 [Example I-66]
Cc1cc(C)cc(Nc2nccc(-c3ncc(CNc4ccncc4)s3)n2)c1 [Example I-125]
CC(=O)Nc1ccc(Nc2nccc(-c3ncc(C)s3)n2)cc1C [Example I-35]
Cc1cnc(-c2ccnc(Nc3cccc(CC#N)c3)n2)s1 [Example I-38]
Cc1cnc(-c2ccnc(Nc3ccc(N4CCN(Cc5ccccc5)CC4)cc3)n2)s1 [Example I-7]
COc1cc(Nc2nccc(-c3ncc(N4CCNCC4)s3)n2)cc(OC)c1OC [Example I-145]
Cc1cnc(-c2ccnc(Nc3ccc4c(c3)OCCCO4)n2)s1 [Example I-4]
CC(=O)Nc1cccc(Nc2nccc(-c3ncc(C)s3)n2)c1 [Example I-78]
Cc1cnc(-c2ccnc(Nc3ccc(-n4cncn4)cc3)n2)s1 [Example I-23]
Cc1cnc(-c2ccnc(Nc3ccc4cn[nH]c4c3)n2)s1 [Example I-9]

biological target: T1, ZAP-70 (Homo sapiens, UniProt P43403); assay: ZAP-70 inhibition assay (standard coupled enzyme assay); assay type: biochemical; settings: 100 μM ATP, 20 μM poly-4EY peptide, 30° C., 60 nM ZAP-70
T1 sequence (P43403 1-619): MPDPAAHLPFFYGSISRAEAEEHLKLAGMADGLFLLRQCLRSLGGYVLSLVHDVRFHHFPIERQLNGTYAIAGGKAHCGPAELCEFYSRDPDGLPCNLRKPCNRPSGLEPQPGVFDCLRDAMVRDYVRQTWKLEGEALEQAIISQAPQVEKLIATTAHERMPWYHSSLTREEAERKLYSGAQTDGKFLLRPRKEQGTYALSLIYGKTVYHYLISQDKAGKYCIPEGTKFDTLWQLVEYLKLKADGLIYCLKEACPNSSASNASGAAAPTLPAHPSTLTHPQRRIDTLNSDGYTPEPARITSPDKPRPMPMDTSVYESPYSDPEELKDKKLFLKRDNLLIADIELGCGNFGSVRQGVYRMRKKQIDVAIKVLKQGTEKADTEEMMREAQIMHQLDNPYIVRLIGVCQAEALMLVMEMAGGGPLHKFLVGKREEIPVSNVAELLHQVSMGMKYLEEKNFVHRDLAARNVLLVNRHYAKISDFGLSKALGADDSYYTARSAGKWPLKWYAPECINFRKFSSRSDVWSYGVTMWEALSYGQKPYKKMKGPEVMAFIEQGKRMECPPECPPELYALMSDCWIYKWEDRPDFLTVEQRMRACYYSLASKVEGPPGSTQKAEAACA
Description: Compounds were screened for their ability to inhibit ZAP-70 using a standard coupled enzyme assay (Fox et al., Protein Sci. 1998, 7, 2249). Assays were carried out in a mixture of 100 mM HEPES (pH 7.5), 10 mM MgCl2, 25 mM NaCl, 2 mM DTT and 3% DMSO. Final substrate concentrations in the assay were 100 μM ATP (Sigma Chemicals) and 20 μM peptide (poly-4EY, Sigma Chemicals). Assays were carried out at 30° C. and 60 nM ZAP-70. Final concentrations of the components of the coupled enzyme system were 2.5 mM phosphoenolpyruvate, 300 μM NADH, 30 μg/ml pyruvate kinase and 10 μg/ml lactate dehydrogenase.
An assay stock buffer solution was prepared containing all of the reagents listed above, with the exception of ZAP-70 and the test compound of interest of the present invention. 55 μl of the stock solution was placed in a 96 well plate followed by addition of 2 μl of DMSO stock containing serial dilutions of the test compound of the present invention (typically starting from a final concentration of 15 μM). The plate was preincubated for 10 minutes at 30° C. and the reaction initiated by addition of 10 μl of enzyme (final concentration 60 nM). Initial reaction rates were determined with a Molecular Devices SpectraMax Plus plate reader over a 15 minute time course. Ki data was calculated from non-linear regression analysis using the Prism software package (GraphPad Prism version 3.0a for Macintosh, GraphPad Software, San Diego Calif., USA).

Ki, ≤ 5 µM:
Cc1cc(C)cc(Nc2nccc(-c3ncc(C(=O)NCCN)s3)n2)c1 [Example I-138]
Cc1cc(C)cc(Nc2nccc(-c3nc(C)c(C)s3)n2)c1 [Example I-70]
Cc1cc(C)cc(Nc2nccc(-c3nc(C)c(CCOC4CCCCO4)s3)n2)c1 (stereo not drawn) [Example I-119]
CCN(CC)Cc1cc(Nc2nccc(-c3ncc(C)s3)n2)ccc1O [Example I-10]
CCn1c2ccccc2c2cc(Nc3nccc(-c4ncc(C)s4)n3)ccc21 [Example I-26]
Cc1cc(C)cc(Nc2nccc(-c3ncc(C(=O)N4CCNCC4)s3)n2)c1 [Example I-134]
Cc1cnc(-c2ccnc(Nc3ccccc3)n2)s1 [Example I-49]
CCOc1ccc(Nc2nccc(-c3ncc(C)s3)n2)cc1 [Example I-14]
Cc1cnc(-c2ccnc(Nc3ccc4[nH]nc(C)c4c3)n2)s1 [Example I-136]
Cc1cnc(-c2ccnc(NC3CCCC3)n2)s1 [Example I-81]
Cc1cc(C)cc(Nc2nccc(-c3nc(Br)cs3)n2)c1 [Example I-42]
COCc1csc(-c2ccnc(Nc3cc(C)cc(C)c3)n2)n1 [Example I-66]
Cc1cc(C)cc(Nc2nccc(-c3ncc(CNc4ccncc4)s3)n2)c1 [Example I-125]
CC(=O)Nc1ccc(Nc2nccc(-c3ncc(C)s3)n2)cc1C [Example I-35]
Cc1cnc(-c2ccnc(Nc3cccc(CC#N)c3)n2)s1 [Example I-38]
Cc1cnc(-c2ccnc(Nc3ccc(N4CCN(Cc5ccccc5)CC4)cc3)n2)s1 [Example I-7]
COc1cc(Nc2nccc(-c3ncc(N4CCNCC4)s3)n2)cc(OC)c1OC [Example I-145]
Cc1cnc(-c2ccnc(Nc3ccc4c(c3)OCCCO4)n2)s1 [Example I-4]
CC(=O)Nc1cccc(Nc2nccc(-c3ncc(C)s3)n2)c1 [Example I-78]
Cc1cnc(-c2ccnc(Nc3ccc(-n4cncn4)cc3)n2)s1 [Example I-23]
Cc1cnc(-c2ccnc(Nc3ccc4cn[nH]c4c3)n2)s1 [Example I-9]
